# US20040033273A1, “Withasol and methods of use” (AyurCore, Inc., priority 2001, published 2004)
# Where two headings read alike, the source gives them in different places.
# Experiments:
# [1] = tested on: BALB/c mouse implanted with ascitic sarcoma, CP treated; settings: for Hb / Platelet Count (×10^3mcl) / RBC Count (×10^6/mcl) / WBC Difference Count (%) Lymphocytes / WBC Difference Count (%) Polymorph / WBC Total Count (×10^3/mcl) / CF Titre (Log2) / HA Titre (Log2) / Difference in Weight (g) from Day 1 to 16: mean +/- SD
# Description: This example describes dosing studies of WITHASOL in cyclophosphamide (CP) treated antigenically challenged BALB/c mouse animals implanted with ascitic sarcoma.
# Following the established protocol, tumor was implanted on day 0. Test drugs as suspensions in 2.0% sterile CMC (vehicle) were prepared by Bio-Ved Laboratories. Antigenically sensitized (day 1) and challenged (day 10) mice, received test substances from day 1 to day 15 per oral route. Animals received appropriate vehicle (2.0% CMC) or CP (150 mg/kg) i.p. on day 11 and blood was collected on day 16. Body weights and gross observations were monitored during treatment.
# Four doses, 400 mg/kg, 200 mg/kg, 100 mg/kg and 50 mg/kg of WITHASOL coded as R-1, R-2, R-3 and R-4, respectively, were used for this study. Decoding was done after the study was completed.
# Data analysis was carried out using ANOVA single factor @<0.05 for comparison of the groups.
# [2] = tested on: BALB/c mouse with ascitic sarcoma (S-180)
# Description: A study was then undertaken to determine the kinetics of cyclophosphamide treatment with respect to myelosuppression and immunosuppression. This step four aspect of the protocol establishes a time response curve for cyclophosphamide and determines optimal time for collection of blood samples and evaluation of hematological and serological parameters under the aforementioned conditions.
# Mice were antigenically challenged with 0.5 cc of RBC suspension (1.0×10^8 cells/cc), intraperitoneally on day 1 as previously described. Mice from all groups were sensitized with RBC and a challenge dose was given on day 10.
# Antibody titres were estimated using 96 well, U-bottom microtiter plates, double diluting serum samples and using 10% Human RBC suspension and complement (guinea pig serum).
# [3] = tested on: BALB/c mouse implanted with ascitic sarcoma (S-180), CP treated; settings: for Hb / Platelet Count (×10^3/mcl) / RBC Count (×10^6/mcl) / WBC Difference Count (%) Lymphocytes / WBC Difference Count (%) Polymorph / WBC Total Count (×10^3/mcl) / CF Titre (Log2) / HA Titre (Log2) / Difference in Weight (g) from Day 1 to 16: mean +/- SD
# [4] = tested on: BALB/c mouse with ascitic sarcoma (S-180); settings: for survival rate: CP 150 mg/kg ip on day 11, compared with the other dose regimens
# [5] = Tumor +, CP +: CP 150 mg/kg ip day 11, WITHASOL po day 1-15 at 400 (R-1), 200 (R-2), 100 (R-3), 50 (R-4) mg/kg or vehicle (CP alone), blood day 16
# [6] = Tumor +, CP +: CP 150 mg/kg ip day 11, WITHASOL po day 1-15 at 400 (R-1), 200 (R-2), 100 (R-3), 50 (R-4) mg/kg or vehicle (CP alone), day 16
# [7] = Tumor −, CP +, vehicle: CP 150 mg/kg ip day 11, blood day 16
# [8] = Tumor −, CP +, vehicle: CP 150 mg/kg ip day 11, day 16
# [9] = Tumor −, CP +, vehicle: CP 150 mg/kg ip day 11
# [10] = groups I and II: CP 150 mg/kg ip day 11 in tumor-free animals, day 16
# [11] = groups III and IV: CP 150 mg/kg ip day 11 in tumor-bearing animals
# [12] = groups III and IV: CP 150 mg/kg ip day 11 in tumor-bearing animals, day 16
# [13] = CP 150 mg/Kg ip day 11 vs vehicle, days 13, 15, 17, 19 and 21
# [14] = Tumor +, CP +: CP 150 mg/kg ip day 11, coded drug 100 mg/kg (vehicle for CP alone) po day 1-15, blood day 16
# [15] = Tumor +, CP +: CP 150 mg/kg ip day 11, coded drug 100 mg/kg (vehicle for CP alone) po day 1-15, serum day 16
# [16] = Tumor −, CP +, vehicle: CP 150 mg/kg ip day 11, serum day 16
# [17] = groups I and II: CP 150 mg/kg ip day 11 in tumor free animals, day 16
# [18] = groups I and II: CP 3.0 mg/kg po days 4 to 19 vs vehicle, blood day 20
# [19] = groups III and IV: CP 100 mg/kg ip days 7, 9, 11 vs vehicle, blood day 20
# [20] = groups V and VI: CP 150 mg/kg ip day 11 vs vehicle, blood day 20
smiles,measurement,setting,value
"O=P1(N(CCCl)CCCl)NCCCO1 (stereo not shown) [CP, cyclophosphamide]",Survival on Day 16 (Day of Bleeding): No. of Animals Survived,"[1]; Tumor +, CP + groups: CP 150 mg/kg ip day 11, WITHASOL po day 1-15 at 400 (R-1), 200 (R-2), 100 (R-3), 50 (R-4) mg/kg or vehicle (CP alone)",8
same,Hb,[1]; [5],12.8 ± 1.03 g/dL
same,Platelet Count (×10^3mcl),[1]; [5],906.0 +/− 312.76 ×10^3mcl
same,RBC Count (×10^6/mcl),[1]; [5],3.79 +/− 0.46 ×10^6/mcl
same,WBC Difference Count (%) Lymphocytes,[1]; [5],4.19 +/− 8.70%
same,WBC Difference Count (%) Polymorph,[1]; [5],58.1 +/− 8.70%
same,WBC Total Count (×10^3/mcl),[1]; [5],6.2 +/− 2.17 ×10^3/mcl
same,CF Titre (Log2),[1]; [6],3.5 +/− 0.53 Log2
same,HA Titre (Log2),[1]; [6],3.3 +/− 0.89 Log2
same,Difference in Weight (g) from Day 1 to 16,"[1]; Tumor +, CP +: CP 150 mg/kg ip day 11, WITHASOL po day 1-15 at 400 (R-1), 200 (R-2), 100 (R-3), 50 (R-4) mg/kg or vehicle (CP alone)",4.9 ± 2.36 g
same,Survival on Day 16 (Day of Bleeding): No. of Animals Survived,"[1]; Tumor −, CP +, vehicle (group II)",10
same,Hb,[1]; [7],12.9 ± 1.40 g/dL
same,Platelet Count (×10^3mcl),[1]; [7],1170.2 +/− 152.33 ×10^3mcl
same,RBC Count (×10^6/mcl),[1]; [7],4.04 +/− 0.54 ×10^6/mcl
same,WBC Difference Count (%) Lymphocytes,[1]; [7],76.7 +/− 4.35%
same,WBC Difference Count (%) Polymorph,[1]; [7],23.3 +/− 4.35%
same,WBC Total Count (×10^3/mcl),[1]; [7],3.6 +/− 0.67 ×10^3/mcl
same,CF Titre (Log2),[1]; [8],4.0 +/− 0.82 Log2
same,HA Titre (Log2),[1]; [8],4.4 +/− 0.52 Log2
same,Difference in Weight (g) from Day 1 to 16,[1]; [9],0.4 ± 0.52 g
same,change in body weights,[1]; groups I and II: CP 150 mg/kg ip day 11 in tumor-free animals,decreased
same,change in HA antibody titres,[1]; [10],decreased
same,change in HL antibody titres,[1]; [10],decreased
same,change in hemoglobin content,[1]; [10],decreased
same,change in platelet counts,[1]; [10],increased
same,change in red cell counts,[1]; [10],decreased
same,change in white cell differential counts,[1]; [10],no significant change
same,change in white cell total counts,[1]; [10],decreased
same,change in body weights,[1]; [11],decreased
same,change in HA antibody titres,[1]; [12],decreased
same,change in HL antibody titres,[1]; [12],decreased
same,change in hemoglobin content,[1]; [12],no significant change
same,change in lymphocyte percentage,[1]; [12],increased
same,change in platelet counts,[1]; [12],no significant change
same,change in polymorph percentage,[1]; [12],decrease
same,change in red cell counts,[1]; [12],no significant change
same,change in white cell total counts,[1]; [12],decrease
same,time of maximum myelosuppressive and immunosuppressive effect,"[2]; CP 150 mg/Kg ip day 11, day after tumor implantation","day 15, or in between day 15 and day 17"
same,change in platelet counts,[2]; CP 150 mg/Kg ip day 11 vs vehicle,unaffected
same,change in hemagglutinating antibody (HA) titers,[2]; [13],decrease
same,change in hemolytic antibody titers (complement fixing-CF),[2]; [13],decrease
same,change in white blood cell counts,"[2]; CP 150 mg/Kg ip day 11 vs vehicle, on day 13 and on day 15",significantly decreased
same,change in hemoglobin content,"[2]; CP 150 mg/Kg ip day 11 vs vehicle, on day 17",significant decrease
same,change in red blood cell counts,"[2]; CP 150 mg/Kg ip day 11 vs vehicle, on day 19 (P<0.09)",increased
same,tumor relapse,"[2]; after a few days of cyclophosphamide treatment (150 mg/Kg ip day 11), animals died from tumor regrowth",Tumor relapse was observed
same,tumor regression,[2]; single cyclophosphamide dose of 150 mg/Kg ip on day 11,regression of tumor
same,Hb,[3]; [14],11.07 ± 3.812 g/dL
same,Platelet Count (×10^3/mcl),[3]; [14],614.17 +/− 287.466 ×10^3/mcl
same,RBC Count (×10^6/mcl),[3]; [14],3.54 +/− 1.332 ×10^6/mcl
same,WBC Difference Count (%) Lymphocytes,[3]; [14],58.18 +/− 8.634%
same,WBC Difference Count (%) Polymorph,[3]; [14],41.42 +/− 8.634%
same,WBC Total Count (×10^3/mcl),[3]; [14],4.53 +/− 0.797 ×10^3/mcl
same,CF Titre (Log2),[3]; [15],1.83 +/− 0.408 Log2
same,HA Titre (Log2),[3]; [15],2.17 +/− 0.837 Log2
same,Difference in Weight (g) from Day 1 to 16,"[3]; Tumor +, CP +: S-180 bearing antigen-challenged mice, CP 150 mg/kg ip day 11, coded drug 100 mg/kg (vehicle for CP alone) po day 1-15",-0.83 ± 2.563 g
same,Hb,[3]; [7],13.8 ± 1.103 g/dL
same,Platelet Count (×10^3/mcl),[3]; [7],966.33 +/− 324.879 ×10^3/mcl
same,RBC Count (×10^6/mcl),[3]; [7],4.37 +/− 0.718 ×10^6/mcl
same,WBC Difference Count (%) Lymphocytes,[3]; [7],63.73 +/− 2.7897%
same,WBC Difference Count (%) Polymorph,[3]; [7],36.2 +/− 2.7897%
same,WBC Total Count (×10^3/mcl),[3]; [7],3.8 +/− 1.226 ×10^3/mcl
same,CF Titre (Log2),[3]; [16],1.00 Log2
same,HA Titre (Log2),[3]; [16],1.5 +/− 5.48 Log2
same,Difference in Weight (g) from Day 1 to 16,[3]; [9],-0.5 ± 0.837 g
same,change in body weights,[3]; groups I and II: CP 150 mg/kg ip day 11 in tumor free animals,decrease
same,change in HA antibody titers,[3]; [17],decreased
same,change in HL antibody titers,[3]; [17],decreased
same,change in hemoglobin content,[3]; [17],No significant change
same,change in lymphocyte percent,[3]; [17],decreased
same,change in platelet counts,[3]; [17],No significant change
same,change in polymorph percent,[3]; [17],Increased
same,change in red cell counts,[3]; [17],lowered
same,change in white cell total counts,[3]; [17],lowered
same,change in body weight,[3]; [11],decreased
same,change in HA antibody titers,[3]; [12],decreased
same,change in HL antibody titers,[3]; [12],decreased
same,change in hemoglobin content,[3]; [12],No significant change
same,change in lymphocyte percentage,[3]; [12],increase
same,change in platelet counts,[3]; [12],Decreased
same,change in polymorph percentage,[3]; [12],Decreased
same,change in red cell counts,[3]; [12],No significant change
same,change in white counts,[3]; [12],Decreased
same,survival rate,[4],maximum survival rate
same,survival rate,[4]; listed as cyclophosphamide,greatest survival rate
same,change in weight of animals,"[4]; all three CP doses (3.0 mg/kg po days 4-19; 100 mg/kg ip days 7, 9, 11; 150 mg/kg ip day 11) vs vehicle, t test",significant decrease
same,change in hemoglobin content,[4]; [18],no significant change
same,change in lymphocytes,[4]; [18],no significant change
same,change in monocyte counts,[4]; [18],significantly increased
same,change in neutrophil counts,[4]; [18],significantly lowered
same,change in platelet counts,[4]; [18],no significant change
same,change in red cell counts,[4]; [18],no significant change
same,change in total white cell counts,[4]; [18],significantly lowered
same,change in hemoglobin content,[4]; [19],no significant change
same,change in platelet counts,[4]; [19],no significant change
same,change in red cell counts,[4]; [19],no significant change
same,change in white cell differential counts,[4]; [19],no significant change
same,change in white cell total counts,[4]; [19],no significant change
same,change in hemoglobin content,[4]; [20],no significant change
same,change in monocytes,[4]; [20],no significant change
same,change in neutrophils,[4]; [20],significant increase
same,change in platelet counts,[4]; [20],no significant change
same,change in red cell counts,[4]; [20],no significant change
same,change in white cell counts,[4]; [20],significant increase
